Legend:
[1] = system: C57BL6J mice, thermal injury to the TA; test: Acute pharmacological activation of PPARδ in freeze burn (thermal) injury of the TA muscle; type: in vivo
Experimental: TA muscles were injured according to previously published methods with a few modifications (Brack et al., Science 317(5839):807-810 (2007)). A stainless steel 1 g weight (Mettler-Toledo) equilibrated to the temperature of dry ice was placed directly on the exposed TA for 10 seconds. Following the thermal injury, incision was closed using VetBond (3M). All injury procedures were performed on the left leg, and the right leg was used as control.
(Hamer et al., J Anat 200(Pt 1):69-79 (2002)). Sterile 1% w/v Evans Blue dye in PBS was intraperitoneally injected at 1% volume relative to the body mass of an animal. Seven hours after the injection, injured TA muscles were harvested and snap-frozen by isopentane quenching in liquid nitrogen. Frozen sections were cut in 10 μm thickness, fixed in ice-cold acetone, dipped in xylene and mounted with DPX. Proportion of the stained area over the total area was measured using ImageJ software.
50 mg/kg body weight of BrdU (Sigma) was injected intraperitoneally as solution of 10 mg/mL BrdU in saline. TA muscles were harvested at 7 days after injury and processed for paraffin sections as described above. BrdU incorporation was visualized using the BrdU Labeling and Detection Kit I (Roche) and BrdU+ nuclei were counted and represented as a proportion of total nuclei in a field.
Whole or partial tissues were homogenized by Polytron probe homogenizer in Trizol reagent (Invitrogen). Total RNA was extracted from the homogenates according to the manufacturer's protocol. One microgram of DNase-treated total RNA was reverse transcribed using Superscript II Reverse Transcriptase (Invitrogen) according to the manufacturer's instructions. cDNAs were diluted 1/40 with ddH2O and used as templates in RT-QPCR reactions with SYBRGreenER qPCR SuperMix detection system (Invitrogen). Samples were prepared in technical triplicates and relative mRNA levels were calculated by using the standard curve methodology and normalized against GAPDH mRNA levels in the same samples.

[2] = system: FGF1a promoter; test: Luciferase reporter assay of FGF1a promoter co-transfected with PPARδ; type: cell-based; conditions: with or without the ligand
Text: FIGS. 3A-3G illustrate that PPARδ regulates FGF1a to promote micro-vascularization. *P<0.05; **P<0.01. All error bars are SEM. FIG. 3A provides immunofluorescence staining for CD31 on transverse sections of uninjured TA from WT and TG animals. FIG. 3B provides quantification of CD31 positive capillary number (n=4). FIG. 3C illustrates the FGF1a mRNA level in TA of WT and TG by QPCR (n=5). FIG. 3D provides a Western blot for FGF1. FIG. 3E provides immunofluorescence staining for CD31 positive capillaries on transverse sections of TA, 5 days after the injury (n=3). FIG. 3F provides quantification for CD31 positive capillaries on transverse sections of TA, 5 days after the injury (n=3). FIG. 3G provides luciferase reporter assays of FGF1a promoter co-transfected with PPARδ with or without the ligand, GW501516.
Increased vasculature is one of the hallmarks of oxidative myofibers, which facilitates introduction of immune cells and also supports increased number of satellite cells. TG animals show increased expression of FGF1 in TA muscle (FIG. 3D). Upon injury, TG animals maintain high expression of FGF1 expression (FIG. 3D). […] Furthermore, after the injury, TG animals show increased expression of CD31, which is indicative of increased vascularity (FIGS. 3E-F). […] Therefore, increased vascularity may contribute to the accelerated regenerative process observed in VP16-PPARδ animals.

SMILES: Cc1cc(SCc2sc(-c3ccc(C(F)(F)F)cc3)nc2C)ccc1OCC(=O)O [GW501516]
- initial inflammatory responses (inflammatory marker genes) ([1]; 12 hours after the injury, with or without ligand): similarly generated
- expressions of inflammatory marker genes by QPCR ([1]; 3 days after the injury): significantly reduced
- reduction in the proportion of stained area ([1]; 5 days after the injury, versus vehicle, orally 5 mg/kg): 34.7%
- expression of PPARδ target genes (PDK4, CPT1b, and catalase) in TA by QPCR ([1]; 9 day treatment, orally 5 mg/kg): Up-regulation
- myoblast proliferation (BrdU positive nuclei) ([1]; BrdU injection at 48 hours after the injury): promoted myoblast proliferation
- increase in the number of quiescent satellite cells ([1]; after 9 days or 4 weeks of ligand treatment): not observed
- Evans Blue dye uptake, proportion of muscle cross sectional area (CSA) stained ([1]; orally 5 mg/kg for 4 days prior to and 5 days after injury, 5 days after the injury, vehicle 7.6%): 4.9%
- FGF1a promoter luciferase reporter activity [2]: induction of FGF1a

Reference: US20170305894A1, “PPAR AGONISTS, COMPOUNDS, PHARMACEUTICAL COMPOSITIONS, AND METHODS OF USE THEREOF” (priority 2014, published 2017)
